From US20150252047A1, “SUBSTITUTED INDAZOL-PYRROLOPYRIMIDINES USEFUL IN THE TREATMENT OF HYPERPROLIFERATIVE DISEASES” (BAYER PHARMA AKTIENGESELLSCHAFT, priority 2012, published 2015)

Molecular target: T1, human full-length MKNK1 (Homo sapiens, UniProt Q9BUB5, T385D)
T1 construct: GST (N); purchased Carna Biosciences 02-145; host or cells: insect cells (baculovirus expression system)
Experiment: MKNK1 kinase high ATP assay (TR-FRET)
Format: biochemical
Settings: high ATP (2 mM final), 15 min preincubation with enzyme, 30 min reaction at 22° C.
Description: MKNK1-inhibitory activity at high ATP of compounds of the present invention after their preincubation with MKNK1 was quantified employing the TR-FRET-based MKNK1 high ATP assay as described in the following paragraphs.
A recombinant fusion protein of Glutathione-S-Transferase (GST, N-terminally) and human full-length MKNK1 (amino acids 1-424 and T344D of accession number BAA 19885.1), expressed in insect cells using baculovirus expression system and purified via glutathione sepharose affinity chromatography, was purchased from Carna Biosciences (product no 02-145) and used as enzyme. As substrate for the kinase reaction the biotinylated peptide biotin-Ahx-IKKRKLTRRKSLKG (C-terminus in amide form) was used, which can be purchased e.g. from the company Biosyntan (Berlin-Buch, Germany).
For the assay 50 nL of a 100 fold concentrated solution of the test compound in DMSO was pipetted into a black low volume 384 well microtiter plate (Greiner Bio-One, Frickenhausen, Germany), 2 μL of a solution of MKNK1 in aqueous assay buffer [50 mM HEPES pH 7.5, 5 mM MgCl2, 1.0 mM dithiothreitol, 0.005% (v/v) Nonidet-P40 (Sigma)] was added and the mixture was incubated for 15 min at 22° C. to allow pre-binding of the test compounds to the enzyme before the start of the kinase reaction. Then the kinase reaction was started by the addition of 3 μL of a solution of adenosine-tri-phosphate (ATP, 3.3 mM=>final conc. in the 5 μL assay volume is 2 mM) and substrate (0.1 μM=>final conc. in the 5 μL assay volume is 0.06 μM) in assay buffer and the resulting mixture was incubated for a reaction time of 30 min at 22° C. The concentration of MKNK1 was adjusted depending of the activity of the enzyme lot and was chosen appropriate to have the assay in the linear range, typical concentrations were in the range of 0.003 μg/mL. The reaction was stopped by the addition of 5 μL of a solution of TR-FRET detection reagents (5 nM streptavidine-XL665 [Cisbio Bioassays, Codolet, France] and 1 nM anti-ribosomal protein S6 (pSer236)-antibody from Invitrogen [#44921G] and 1 nM LANCE EU-W1024 Labeled ProteinG [Perkin-Elmer, product no. AD0071]) in an aqueous EDTA-solution (100 mM EDTA, 0.1% (w/v) bovine serum albumin in 50 mM HEPES pH 7.5).
The resulting mixture was incubated for 1 h at 22° C. to allow the formation of complex between the phosphorylated biotinylated peptide and the detection reagents. Subsequently the amount of phosphorylated substrate was evaluated by measurement of the resonance energy transfer from the Eu-chelate to the streptavidine-XL. Therefore, the fluorescence emissions at 620 nm and 665 nm after excitation at 350 nm were measured in a TR-FRET reader, e.g. a Rubystar (BMG Labtechnologies, Offenburg, Germany) or a Viewlux (Perkin-Elmer). The ratio of the emissions at 665 nm and at […] was taken as the measure for the amount of phosphorylated substrate. The data were normalised (enzyme reaction without inhibitor=0% inhibition, all other assay components but no enzyme=100% inhibition).

T1 sequence (Q9BUB5 1-424 isoform Q9BUB5-2 T344D): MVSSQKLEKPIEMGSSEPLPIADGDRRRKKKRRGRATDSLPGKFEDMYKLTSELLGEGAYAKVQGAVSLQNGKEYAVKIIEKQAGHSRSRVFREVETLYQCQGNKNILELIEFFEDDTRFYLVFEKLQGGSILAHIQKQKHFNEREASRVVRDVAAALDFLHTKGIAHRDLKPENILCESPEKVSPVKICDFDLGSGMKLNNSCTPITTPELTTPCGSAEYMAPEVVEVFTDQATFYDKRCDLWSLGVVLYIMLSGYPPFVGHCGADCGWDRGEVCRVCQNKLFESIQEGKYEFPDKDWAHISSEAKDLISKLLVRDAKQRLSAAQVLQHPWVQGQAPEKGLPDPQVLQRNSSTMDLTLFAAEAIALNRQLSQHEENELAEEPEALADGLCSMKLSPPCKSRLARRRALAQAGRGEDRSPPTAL

IC50 [nM]	Structure (SMILES)
3	CCc1[nH]c2ncnc(Nc3cc4cn[nH]c4cc3OC)c2c1C [Example 1, 6-Ethyl-N-(6-methoxy-1H-indazol-5-yl)-5-methyl-7H-pyrrolo[2,3-d]pyrimidin-4-amine]
17	COc1cc2[nH]ncc2cc1Nc1ncnc2[nH]ccc12 [Example 2, N-(6-methoxy-1H-indazol-5-yl)-7H-pyrrolo[2,3-d]pyrimidin-4-amine]
5	COc1cc2[nH]ncc2cc1Nc1ncnc2[nH]cc(F)c12 [Example 3, 5-fluoro-N-(6-methoxy-1H-indazol-5-yl)-7H-pyrrolo[2,3-d]pyrimidin-4-amine]
72	COc1cc2[nH]ncc2cc1Nc1ncnc2[nH]cc(C(=O)O)c12 [Example 4, 4-[(6-methoxy-1H-indazol-5-yl)amino]-7H-pyrrolo[2,3-d]pyrimidine-5-carboxylic acid]
110	COc1cc2[nH]ncc2cc1Nc1ncnc2[nH]cc(C(=O)N3CCN(C)CC3)c12 [Example 5, {4-[(6-methoxy-1H-indazol-5-yl)amino]-7H-pyrrolo[2,3-d]pyrimidin-5-yl}(4-methylpiperazin-1-yl)methanone]
16	COc1cc2[nH]ncc2cc1Nc1ncnc2[nH]cc(C(=O)NC(C)C)c12 [Example 6, N-isopropyl-4-[(6-methoxy-1H-indazol-5-yl)amino]-7H-pyrrolo[2,3-d]pyrimidine-5-carboxamide]
179	FC(F)(F)c1n[nH]c2ccc(Nc3ncnc4[nH]ccc34)cc12 [Example 7, N-[3-(trifluoromethyl)-1H-indazol-5-yl]-7H-pyrrolo[2,3-d]pyrimidin-4-amine]
72	Cc1cc2[nH]ncc2cc1Nc1ncnc2[nH]cc(C(=O)O)c12 [Example 8, 4-[(6-Methyl-1H-indazol-5-yl)amino]-7H-pyrrolo[2,3-d]pyrimidine-5-carboxylic acid]
29	Fc1cc2[nH]ncc2cc1Nc1ncnc2[nH]cc(F)c12 [Example 9, 5-Fluoro-N-(6-fluoro-1H-indazol-5-yl)-7H-pyrrolo[2,3-d]pyrimidin-4-amine]
14	O=C(O)c1c[nH]c2ncnc(Nc3cc4cn[nH]c4cc3F)c12 [Example 10, 4-[(6-Fluoro-1H-indazol-5-yl)amino]-7H-pyrrolo[2,3-d]pyrimidine-5-carboxylic acid]
74	Cc1cc2[nH]ncc2cc1Nc1ncnc2[nH]cc(F)c12 [Example 11, 5-Fluoro-N-(6-methyl-1H-indazol-5-yl)-7H-pyrrolo[2,3-d]pyrimidin-4-amine]
211	Cc1cc2[nH]ncc2cc1Nc1ncnc2[nH]cc(C(=O)N(C)C)c12 [Example 12, N,N-Dimethyl-4-[(6-methyl-1H-indazol-5-yl)amino]-7H-pyrrolo[2,3-d]pyrimidine-5-carboxamide]
194	Cc1cc2[nH]ncc2cc1Nc1ncnc2[nH]cc(C(=O)N3CCN(C)CC3)c12 [Example 13, {4-[(6-Methyl-1H-indazol-5-yl)amino]-7H-pyrrolo[2,3-d]pyrimidin-5-yl}(4-methylpiperazin-1-yl)methanone]
34	Cc1cc2[nH]ncc2cc1Nc1ncnc2[nH]cc(C(=O)NC(C)C)c12 [Example 14, 4-[(6-Methyl-1H-indazol-5-yl)amino]-N-(propan-2-yl)-7H-pyrrolo[2,3-d]pyrimidine-5-carboxamide]
12	Fc1cc2[nH]ncc2cc1Nc1ncnc2[nH]cc(Br)c12 [Example 15, 5-Bromo-N-(6-fluoro-1H-indazol-5-yl)-7H-pyrrolo[2,3-d]pyrimidin-4-amine]
31	CN(C)C(=O)c1c[nH]c2ncnc(Nc3cc4cn[nH]c4cc3F)c12 [Example 16, 4-[(6-Fluoro-1H-indazol-5-yl)amino]-N, N-dimethyl-7H-pyrrolo[2,3-d]pyrimidine-5-carboxamide]
30	CN1CCN(C(=O)c2c[nH]c3ncnc(Nc4cc5cn[nH]c5cc4F)c23)CC1 [Example 17, {4-[(6-Fluoro-1H-indazol-5-yl)amino]-7H-pyrrolo[2,3-d]pyrimidin-5-yl}(4-methylpiperazin-1-yl)methanone]

IC50 [nM]	Structure (SMILES)
9	CC(C)NC(=O)c1c[nH]c2ncnc(Nc3cc4cn[nH]c4cc3F)c12 [Example 18, 4-[(6-Fluoro-1H-indazol-5-yl)amino]-N-(propan-2-yl)-7H-pyrrolo[2,3-d]pyrimidine-5-carboxamide]
1	COc1cc2[nH]ncc2cc1Nc1ncnc2[nH]cc(Br)c12 [Example 19, 5-Bromo-N-(6-methoxy-1H-indazol-5-yl)-7H-pyrrolo[2,3-d]pyrimidin-4-amine]
13	COc1cc2[nH]ncc2cc1Nc1ncnc2[nH]c(Br)cc12 [Example 20, 6-Bromo-N-(6-methoxy-1H-indazol-5-yl)-7H-pyrrolo[2,3-d]pyrimidin-4-amine]
6	COc1cc2[nH]ncc2cc1Nc1ncnc2[nH]c(S(C)(=O)=O)cc12 [Example 21, N-(6-Methoxy-1H-indazol-5-yl)-6-(methylsulfonyl)-7H-pyrrolo[2,3-d]pyrimidin-4-amine]
11	COc1cc2[nH]ncc2cc1Nc1ncnc2[nH]c(C#CCO)cc12 [Example 22, 3-{4-[(6-Methoxy-1H-indazol-5-yl)amino]-7H-pyrrolo[2,3-d]pyrimidin-6-yl}prop-2-yn-1-ol]
27	COc1cc2[nH]ncc2cc1Nc1ncnc2[nH]c(CCCO)cc12 [Example 23, 3-{4-[(6-Methoxy-1H-indazol-5-yl)amino]-7H-pyrrolo[2,3-d]pyrimidin-6-yl}propan-1-ol]
26	CC(C)Oc1cc2[nH]ncc2cc1Nc1ncnc2[nH]ccc12 [Example 24, N-[6-(Propan-2-yloxy)-1H-indazol-5-yl]-7H-pyrrolo[2,3-d]pyrimidin-4-amine]
5	CC(C)Oc1cc2[nH]ncc2cc1Nc1ncnc2[nH]cc(F)c12 [Example 25, 5-Fluoro-N-[6-(propan-2-yloxy)-1H-indazol-5-yl]-7H-pyrrolo[2,3-d]pyrimidin-4-amine]
2	CC(C)Oc1cc2[nH]ncc2cc1Nc1ncnc2[nH]cc(Br)c12 [Example 26, 5-Bromo-N-[6-(propan-2-yloxy)-1H-indazol-5-yl]-7H-pyrrolo[2,3-d]pyrimidin-4-amine]
3	CCc1[nH]c2ncnc(Nc3cc4cn[nH]c4cc3OC(C)C)c2c1C [Example 27, 6-Ethyl-5-methyl-N-[6-(propan-2-yloxy)-1H-indazol-5-yl]-7H-pyrrolo[2,3-d]pyrimidin-4-amine]
184	CC(C)Oc1cc2[nH]ncc2cc1Nc1ncnc2[nH]cc(C(=O)O)c12 [Example 28, 4-{[6-(Propan-2-yloxy)-1H-indazol-5-yl]amino}-7H-pyrrolo[2,3-d]pyrimidine-5-carboxylic acid]
117	CC(C)Oc1cc2[nH]ncc2cc1Nc1ncnc2[nH]cc(C(=O)N3CCN(C)CC3)c12 [Example 29, (4-Methylpiperazin-1-yl)(4-{[6-(propan-2-yloxy)-1H-indazol-5-yl]amino}-7H-pyrrolo[2,3-d]pyrimidin-5-yl)methanone]
141	CC(C)Oc1cc2[nH]ncc2cc1Nc1ncnc2[nH]cc(C(=O)N(C)C)c12 [Example 30, N,N-Dimethyl-4-{[6-(propan-2-yloxy)-1H-indazol-5-yl]amino}-7H-pyrrolo[2,3-d]pyrimidine-5-carboxamide]
94	CC(C)NC(=O)c1c[nH]c2ncnc(Nc3cc4cn[nH]c4cc3OC(C)C)c12 [Example 31, N-(Propan-2-yl)-4-{[6-(propan-2-yloxy)-1H-indazol-5-yl]amino}-7H-pyrrolo[2,3-d]pyrimidine-5-carboxamide]
14	CC(C)Oc1cc2[nH]ncc2cc1Nc1ncnc2[nH]c(C#CCO)cc12 [Example 32, 3-(4-{[6-(Propan-2-yloxy)-1H-indazol-5-yl]amino}-7H-pyrrolo[2,3-d]pyrimidin-6-yl)prop-2-yn-1-ol]
35	CC(C)Oc1cc2[nH]ncc2cc1Nc1ncnc2[nH]c(CCCO)cc12 [Example 33, 3-(4-{[6-(Propan-2-yloxy)-1H-indazol-5-yl]amino}-7H-pyrrolo[2,3-d]pyrimidin-6-yl)propan-1-ol]
